Measured values reported in PubChem BioAssay (NCI).
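Tested at 5 concentrations; 48 h exposure; 96-well plates; endpoints linearly interpolated, else capped at highest concentration. GI50 marks 50% less growth. TGI denotes the concentration required for complete inhibition of growth.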

Assays:
Assay in all cases: NCI anticancer screen, dose series, 48 h
[1] = system: CAKI-1 renal
[2] = system: NCI-H460 lung
[3] = system: HL-60(TB) leukemia
[4] = system: UACC-257 melanoma
[5] = system: SW-620 colon
[6] = system: KM12 colon
[7] = system: BT-549 breast
[8] = system: EKVX NSCLC
[9] = system: COLO 205 colon
[10] = system: HOP-92 NSCLC
[11] = system: OVCAR-3 ovarian
[12] = system: OVCAR-8 ovarian
[13] = system: MCF7 breast
[14] = system: IGROV1 ovarian
[15] = system: NCI-H226 lung
[16] = system: NCI-H23 lung
[17] = system: SK-MEL-2 melanoma
[18] = system: SN12C renal
[19] = system: A549 NSCLC
[20] = system: M14 melanoma
[21] = system: CCRF-CEM leukemia
[22] = system: SF-295 CNS
[23] = system: HS 578T breast
[24] = system: MDA-MB-231 breast
[25] = system: NCI-H522 lung
[26] = system: RPMI-8226 leukemia
[27] = system: DU-145 prostate
[28] = system: HCC-2998 colon
[29] = system: UO-31 renal
[30] = system: LOX IMVI melanoma
[31] = system: OVCAR-5 ovarian
[32] = system: SR leukemia
[33] = system: OVCAR-4 ovarian
[34] = system: ACHN renal
[35] = system: SF-539 CNS
[36] = system: T-47D breast
[37] = system: PC-3 prostate
[38] = system: MALME-3M melanoma
[39] = system: 786-0 renal
[40] = system: SK-MEL-5 melanoma
[41] = system: HT29 colon
[42] = system: TK-10 renal
[43] = system: MDA-MB-435
[44] = system: UACC-62 melanoma
[45] = system: SF-268 CNS
[46] = system: RXF 393 renal
[47] = system: SK-MEL-28 melanoma
[48] = system: HCT-116 colon
[49] = system: HOP-62 NSCLC
[50] = system: SNB-75 CNS
[51] = system: U251 CNS
[52] = system: MOLT-4 leukemia
[53] = system: HCT-15 colon
[54] = system: NCI/ADR-RES ovarian
[55] = system: K-562 leukemia
[56] = system: A498 renal
[57] = system: SNB-19 CNS
[58] = system: SK-OV-3 ovarian
[59] = system: MDA-N

CC1OC(OC2C(OC3CCC4(C)C(CCC5(C)C4CC=C4C6CC(C)(C)CCC6(CO)C(O)CC45C)C3(C)C)OC(C(=O)O)C(OC3OC(COC4OC(CO)C(O)C(O)C4O)C(O)C(O)C3O)C2O)C(O)C(O)C1O (stereo unspecified)
GI50 [1]: 10.6 µM | TGI [1]: 22.1 µM | GI50 [2]: 12.1 µM | TGI [2]: 24.5 µM | GI50 [3]: 1.5 µM | TGI [3]: 3.53 µM | GI50 [4]: 13.2 µM | TGI [4]: 26.3 µM | GI50 [5]: 12.5 µM | TGI [5]: 24.2 µM | GI50 [6]: 3.25 µM | TGI [6]: 14.1 µM | GI50 [7]: 1.15 µM | TGI [7]: 2.49 µM | GI50 [8]: 2.41 µM | TGI [8]: 11.5 µM | GI50 [9]: 1.75 µM | TGI [9]: 4.39 µM | GI50 [10]: 3.56 µM | TGI [10]: 15.3 µM | GI50 [11]: 12.7 µM | TGI [11]: 24.7 µM | GI50 [12]: 13.5 µM | TGI [12]: 28.5 µM | GI50 [13]: 11.4 µM | TGI [13]: 24.2 µM | GI50 [14]: 7.1 µM | TGI [14]: 17.5 µM | GI50 [15]: 3.35 µM | TGI [15]: 16.1 µM | GI50 [16]: 1.77 µM | TGI [16]: 4.67 µM | GI50 [17]: 8.57 µM | TGI [17]: 20.1 µM | GI50 [18]: 2.46 µM | TGI [18]: 9.19 µM | GI50 [19]: 12.2 µM | TGI [19]: 28.1 µM | GI50 [20]: 2.5 µM | TGI [20]: 9.24 µM | GI50 [21]: 3.88 µM | TGI [21]: 20.7 µM | GI50 [22]: 8.13 µM | TGI [22]: 20.2 µM | GI50 [23]: 13.1 µM | TGI [23]: 34.6 µM | GI50 [24]: 10.8 µM | TGI [24]: 21.8 µM | GI50 [25]: 1.43 µM | TGI [25]: 2.95 µM | GI50 [26]: 7.79 µM | TGI [26]: 23.5 µM | GI50 [27]: 13.4 µM | TGI [27]: 25.1 µM | GI50 [28]: 1.73 µM | TGI [28]: 4.45 µM | GI50 [29]: 5.45 µM | TGI [29]: 15.9 µM | GI50 [30]: 10.7 µM | TGI [30]: 21.6 µM | GI50 [31]: 5.17 µM | TGI [31]: 16.7 µM | GI50 [32]: 1.97 µM | TGI [32]: 5.63 µM | GI50 [33]: 3.1 µM | TGI [33]: 12.8 µM | GI50 [34]: 4.81 µM | TGI [34]: 16.8 µM | GI50 [35]: 8.48 µM | TGI [35]: 20.5 µM | GI50 [36]: 12.3 µM | TGI [36]: 27.8 µM | GI50 [37]: 1.56 µM | TGI [37]: 3.92 µM | GI50 [38]: 7.58 µM | TGI [38]: 18.8 µM | GI50 [39]: 1.15 µM | TGI [39]: 3.01 µM | GI50 [40]: 11.5 µM | TGI [40]: 22.2 µM | GI50 [41]: 11.9 µM | TGI [41]: 25.5 µM | GI50 [42]: 16.1 µM | TGI [42]: 28.4 µM | GI50 [43]: 4.34 µM | TGI [43]: 14.7 µM | GI50 [44]: 9.64 µM | TGI [44]: 20.6 µM | GI50 [45]: 13.1 µM | TGI [45]: 27.1 µM | GI50 [46]: 8.94 µM | TGI [46]: 19.8 µM | GI50 [47]: 1.96 µM | TGI [47]: 9.02 µM | GI50 [48]: 2.05 µM | TGI [48]: 9.21 µM | GI50 [49]: 14.8 µM | TGI [49]: 30.9 µM | GI50 [50]: 11.2 µM | TGI [50]: 23 µM | GI50 [51]: 10.2 µM | TGI [51]: 22.1 µM | GI50 [52]: 2.35 µM | TGI [52]: 8.42 µM | GI50 [53]: 8.27 µM | TGI [53]: 18.8 µM | GI50 [54]: 11.5 µM | TGI [54]: 23.6 µM | GI50 [55]: 3.09 µM | TGI [55]: 15.4 µM | GI50 [56]: 13.2 µM | TGI [56]: 23.9 µM | GI50 [57]: 13.9 µM | TGI [57]: 28 µM | GI50 [58]: 6.08 µM | TGI [58]: 18 µM

O=C(CC(C(=O)c1ccsc1)c1cccs1)c1ccsc1 (stereo unspecified)
TGI [1]: > 100 µM | TGI [2]: > 100 µM | TGI [3]: > 100 µM | TGI [4]: > 100 µM | TGI [5]: > 100 µM | TGI [6]: > 100 µM | TGI [8]: > 100 µM | TGI [9]: > 100 µM | TGI [12]: > 100 µM | TGI [13]: > 100 µM | TGI [14]: > 100 µM | TGI [15]: > 100 µM | TGI [16]: > 100 µM | TGI [17]: > 100 µM | TGI [18]: > 100 µM | TGI [19]: > 100 µM | TGI [20]: > 100 µM | TGI [21]: > 100 µM | TGI [22]: > 100 µM | TGI [24]: > 100 µM | TGI [26]: > 100 µM | TGI [27]: > 100 µM | TGI [59]: > 100 µM | TGI [28]: > 100 µM | TGI [29]: > 100 µM | TGI [30]: > 100 µM | TGI [31]: > 100 µM | TGI [32]: > 100 µM | TGI [33]: > 100 µM | TGI [34]: > 100 µM | TGI [36]: 84.3 µM | TGI [37]: > 100 µM | TGI [38]: > 100 µM | TGI [39]: > 100 µM | TGI [40]: > 100 µM | TGI [41]: > 100 µM | TGI [42]: > 100 µM | TGI [43]: > 100 µM | TGI [44]: > 100 µM | TGI [45]: > 100 µM | TGI [47]: > 100 µM | TGI [49]: > 100 µM | TGI [50]: > 100 µM | TGI [51]: > 100 µM | TGI [52]: > 100 µM | TGI [53]: > 100 µM | TGI [54]: > 100 µM | TGI [55]: > 100 µM | TGI [56]: > 100 µM | TGI [57]: > 100 µM | TGI [58]: > 100 µM

Cc1[nH]c2ncn(N)c(=N)c2c1Cc1ccccc1
TGI [1]: > 100 µM | TGI [3]: > 100 µM | TGI [4]: > 100 µM | TGI [5]: > 100 µM | TGI [6]: > 100 µM | TGI [7]: > 100 µM | TGI [8]: > 100 µM | TGI [9]: > 100 µM | TGI [10]: 87.8 µM | TGI [11]: > 100 µM | TGI [12]: > 100 µM | TGI [13]: > 100 µM | TGI [14]: > 100 µM | TGI [15]: > 100 µM | TGI [16]: > 100 µM | TGI [17]: > 100 µM | TGI [18]: > 100 µM | TGI [19]: > 100 µM | TGI [20]: > 100 µM | TGI [21]: > 100 µM | TGI [22]: > 100 µM | TGI [24]: > 100 µM | TGI [25]: > 100 µM | TGI [26]: > 100 µM | TGI [59]: > 100 µM | TGI [28]: > 100 µM | TGI [29]: > 100 µM | TGI [30]: > 100 µM | TGI [31]: > 100 µM | TGI [32]: > 100 µM | TGI [33]: > 100 µM | TGI [34]: > 100 µM | TGI [35]: > 100 µM | TGI [36]: > 100 µM | TGI [37]: > 100 µM | TGI [38]: > 100 µM | TGI [39]: > 100 µM | TGI [40]: > 100 µM | TGI [41]: > 100 µM | TGI [42]: > 100 µM | TGI [43]: > 100 µM | TGI [44]: > 100 µM | TGI [47]: > 100 µM | TGI [48]: > 100 µM | TGI [49]: > 100 µM | TGI [50]: > 100 µM | TGI [51]: > 100 µM | TGI [52]: > 100 µM | TGI [53]: > 100 µM | TGI [54]: > 100 µM | TGI [55]: > 100 µM | TGI [56]: > 100 µM | TGI [57]: > 100 µM | TGI [58]: > 100 µM
